Assay type in all cases: binding
For test [1], the system named is HCoV-OC43 gRNA and sgRNA. The settings on record: for target (unweighted spectral count, OC43 Probe II capture) / target (spectral count) / background (spectral count): 36 hpi; for target (unweighted spectral count, OC43 Probe II capture): type n_36_v, FDR<10%; for target (unweighted spectral count, OC43 Probe II capture) / target (unweighted spectral count): tested against no-probe control; for target (unweighted spectral count): OC43 Probe II, infected cells; for target (unweighted spectral count, OC43 Probe II) / background (unweighted spectral count, no-probe control): type n_48_v, 48 hpi; for target (unweighted spectral count, OC43 Probe II): OC43 Probe II capture on infected cells; for background (unweighted spectral count, no-probe control): no-probe control on infected cells; for target (spectral count) / background (spectral count): type s_36_m, Probe II; for target (spectral count): HCoV-OC43-infected HCT-8 cells; for background (spectral count): uninfected-probe control.

Test [2] relates to SARS-CoV-2 gRNA. The settings on record: for target (unweighted spectral count of the protein in the RNP capture): LC-MS/MS, Probe I sample (first 199 lines of Table 2).
The test system of test [3] is SARS-CoV-2 gRNA and sgRNAs. The settings on record: for target (unweighted spectral count of the protein in the RNP capture experiment): LC-MS/MS label-free quantification, probe pool not given; for back-ground (unweighted spectral count of the protein in the control experiment): protein background of the control (e.g. no-probe) experiment; for background (unweighted spectral count in control): no-probe control pull-down, used as background for Probe II.

The subject of test [4] is gRNA of HCoV-OC43. The conditions noted are these: for target (spectral count) / background (spectral count): type g_36_m, 36 hpi, Probe I; for target (spectral count): HCoV-OC43-infected HCT-8 cells; for background (spectral count): uninfected-probe control; for target (spectral count, OC43 Probe I RNP capture) / background (spectral count, no-probe control): type n_48_v: 48 hours post-infection; for target (spectral count, OC43 Probe I RNP capture): infected cells, unweighted spectral count; for background (spectral count, no-probe control): no-probe control on infected cells.

Entries after “also recorded” stand apart in the source; their conditions may differ. Read-outs that look alike come from different tables or passages of the source.

Consider ILF2: host protein, UniProt Q12905, for which, in test [1], the “target (unweighted spectral count, OC43 Probe II capture)” value was determined as 15; the “target (unweighted spectral count, OC43 Probe II)” value is recorded as 17; the “background (unweighted spectral count, no-probe control)” value came out at 3. Moreover, the “target (unweighted spectral count)” value in test [1] (12 hpi (type n_12_v)) was found to be 4. Besides, in test [1] (24 hpi (type n_24_v)), the “target (unweighted spectral count)” value was 7. For the same substance, the “target (unweighted spectral count of the protein in the RNP capture)” value in test [2] ([…]) is recorded as 12. Besides, in test [3] ([…]), the “target (unweighted spectral count of the protein in the RNP capture experiment)” value amounted to 5 and the “back-ground (unweighted spectral count of the protein in the control experiment)” value worked out at 1. Besides, in test [4], the “target (spectral count)” value amounted to 16; the “background (spectral count)” value came out at 2; the “target (spectral count, OC43 Probe I RNP capture)” value came out at 14; the “background (spectral count, no-probe control)” value came to 3.
PABPC1: host protein, UniProt P11940: in test [1], the “target (unweighted spectral count, OC43 Probe II capture)” value came out at 23; the “target (unweighted spectral count, OC43 Probe II)” value was 26; the “background (unweighted spectral count, no-probe control)” value is 2; the “target (spectral count)” value came out at 29. In addition, in test [1], the “background (spectral count)” value turned out to be 3. In addition, the “target (unweighted spectral count)” value in test [1] (12 hpi (type n_12_v)) was 7. Further, the “target (unweighted spectral count)” value in test [1] (24 hpi (type n_24_v)) was 18. The “enrichment in SARS-CoV-2 Probe I RNP capture” value in test [2] is on record as “enriched; also recorded: found in the SARS-CoV-2 experiments”. In addition, the “target (unweighted spectral count of the protein in the RNP capture)” value in test [2] ([…]) is 29. Also, the “enrichment in SARS-CoV-2 Probe II RNP capture” value in test [3] was “enriched; also recorded: found in the SARS-CoV-2 experiments”. For the same substance, in test [4], the “target (spectral count)” value worked out at 22; the “background (spectral count)” value came to 1; the “target (spectral count, OC43 Probe I RNP capture)” value was 23; the “background (spectral count, no-probe control)” value is reported as 2.
As for PTBP3: host protein, UniProt O95758, in test [1], the “target (unweighted spectral count, OC43 Probe II capture)” value came out at 8; the “target (unweighted spectral count, OC43 Probe II)” value worked out at 12; the “background (unweighted spectral count, no-probe control)” value came out at 2; the “target (spectral count)” value turned out to be 8. For the same substance, the “background (spectral count)” value in test [1] turned out to be 1. Also, the “target (unweighted spectral count)” value in test [1] (24 hpi (type n_24_v)) came out at 7. In addition, in test [2], the “enrichment in SARS-CoV-2 Probe I RNP capture” value was “found in the SARS-CoV-2 experiments”. The “target (unweighted spectral count of the protein in the RNP capture)” value in test [2] ([…]) turned out to be 23. In test [3], the “enrichment in SARS-CoV-2 Probe II RNP capture” value is on record as “found in the SARS-CoV-2 experiments” and the “background (unweighted spectral count in control)” value came to 1. For the same substance, in test [4], the “target (spectral count)” value is recorded as 11; the “background (spectral count)” value is 1; the “target (spectral count, OC43 Probe I RNP capture)” value was determined as 14; the “background (spectral count, no-probe control)” value was determined as 2.
Regarding SAFB2, in test [1], the “target (unweighted spectral count, OC43 Probe II capture)” value turned out to be 5; the “target (unweighted spectral count, OC43 Probe II)” value is on record as 7; the “background (unweighted spectral count, no-probe control)” value stood at 1. For the same substance, the “target (unweighted spectral count of the protein in the RNP capture)” value in test [2] ([…]) came out at 8. In test [3] ([…]), the “target (unweighted spectral count of the protein in the RNP capture experiment)” value was found to be 6 and the “back-ground (unweighted spectral count of the protein in the control experiment)” value is recorded as 1. Besides, in test [4], the “target (spectral count, OC43 Probe I RNP capture)” value is recorded as 9 and the “background (spectral count, no-probe control)” value is reported as 1.
In the case of TAF15: host protein, UniProt Q92804, the “target (unweighted spectral count)” value in test [1] (12 hpi (type n_12_v)) was 5. Further, in test [1], the “target (unweighted spectral count, OC43 Probe II)” value was determined as 8; the “background (unweighted spectral count, no-probe control)” value is on record as 1; the “target (spectral count)” value stood at 8; the “background (spectral count)” value is 1. In test [2] (Probe I capture, […], LC-MS/MS LFQ), the “target (unweighted spectral count in RNP capture)” value was 5. Further, in test [2] (no-probe control pull-down, used as background for Probe I), the “background (unweighted spectral count in control)” value was found to be 1. Also, the “target (unweighted spectral count in RNP capture)” value in test [3] (Probe II capture, […], LC-MS/MS LFQ) came to 8. Also, the “background (unweighted spectral count in control)” value in test [3] worked out at 1. For the same substance, in test [4], the “target (spectral count, OC43 Probe I RNP capture)” value amounted to 11 and the “background (spectral count, no-probe control)” value worked out at 1.

(Values after patent publication US20230407373A1 (priority 2020, published 2023).)
